Holding throughout (experiment): Large panel kinase profiling
Holding throughout (type): biochemical
Common to all, as to settings: 1 μM test article, 1 mM ATP

Test [1] concerns the target T1, CDK4/D3 (Homo sapiens, UniProt P11802).
T1 construct: AssayQuant Technologies, Inc. (ran the panel)
How it is done:
(§1) Large panel kinase profiling was performed at AssayQuant Technologies, Inc. 260 Cedar Hill Street, Marlborough, Mass. 01752 using the PhosphoSens® CSox-Sensor platform using 1 μM test article concentration and 1 mM ATP concentration (www.assayquant.com). Reactions were run in Corning, half-area 96-well, white flat round bottom polystyrene NBS microplates (Cat. #3642) after sealing using optically-clear adhesive film (TopSealA-Plus plate seal, PerkinElmer), applied with either a roller or a paddle to eliminate evaporation and resulting drift. The standard total reaction volume was 50 μL. All experiments were ran at 30° C. to control for fluctuations in ambient temperature. Plates were read from the top in kinetic mode (readings taken every 1 min), monitoring fluorescence intensity with filters using Ex 360 nm and Em 485 nm and a band width of 40 and 20 nm, respectively, and a gain of 80. Data analysis was performed using either Graphpad Prism or Gene Data Screener software.

Test [2] deals with T2, CDK5/P25 (Homo sapiens, UniProt Q00535).
T2 construct: AssayQuant Technologies, Inc. (ran the panel)
How it is done:
as §1

Test [3] has as its target T3, SYK (Homo sapiens, UniProt P43405).
T3 construct: AssayQuant Technologies, Inc. (contract assay)
How it is done: as §1

In test [4] the target is T4, MAPK15/ERK7 (Homo sapiens, UniProt Q8TD08).
T4 construct: AssayQuant Technologies, Inc. (service provider)
T4 sequence (Q8TD08 1-544): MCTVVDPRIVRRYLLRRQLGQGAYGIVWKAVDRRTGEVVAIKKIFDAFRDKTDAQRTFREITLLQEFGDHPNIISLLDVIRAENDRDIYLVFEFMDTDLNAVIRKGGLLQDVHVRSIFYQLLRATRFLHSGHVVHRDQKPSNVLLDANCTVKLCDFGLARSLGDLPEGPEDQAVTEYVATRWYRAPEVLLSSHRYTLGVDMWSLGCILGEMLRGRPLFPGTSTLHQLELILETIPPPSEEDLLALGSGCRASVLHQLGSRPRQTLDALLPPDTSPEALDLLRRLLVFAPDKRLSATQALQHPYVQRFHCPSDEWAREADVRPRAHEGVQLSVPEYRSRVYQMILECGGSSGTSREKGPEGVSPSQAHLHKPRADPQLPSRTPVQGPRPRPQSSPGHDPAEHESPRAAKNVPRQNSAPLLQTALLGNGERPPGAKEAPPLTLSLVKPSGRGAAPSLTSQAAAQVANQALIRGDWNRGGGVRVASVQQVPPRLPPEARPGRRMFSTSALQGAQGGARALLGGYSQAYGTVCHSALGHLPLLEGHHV
How it is done:
as §1

The target of test [5] is PRKAA2/AMPK211 (Homo sapiens, UniProt P54646). How it is done: as §1
Test [6] deals with T5, AURKA/AURA (Homo sapiens, UniProt O14965).
T5 sequence (O14965 1-403): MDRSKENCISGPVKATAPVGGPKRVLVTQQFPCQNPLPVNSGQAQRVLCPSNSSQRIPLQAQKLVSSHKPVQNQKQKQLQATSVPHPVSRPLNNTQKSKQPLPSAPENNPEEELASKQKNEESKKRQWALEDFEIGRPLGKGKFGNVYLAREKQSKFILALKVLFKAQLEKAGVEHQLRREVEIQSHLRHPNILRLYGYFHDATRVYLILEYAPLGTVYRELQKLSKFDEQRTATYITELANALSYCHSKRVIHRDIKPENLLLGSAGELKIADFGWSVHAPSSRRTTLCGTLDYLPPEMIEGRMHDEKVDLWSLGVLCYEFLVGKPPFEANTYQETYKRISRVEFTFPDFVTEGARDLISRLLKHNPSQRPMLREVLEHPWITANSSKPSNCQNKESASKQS
How it is done:
as §1

The target in test [7] is PIM3 (Homo sapiens, UniProt Q86V86). How it is done:
as §1

For test [8], the target named is T6, CAMKK2 (Homo sapiens, UniProt Q96RR4).
T6 construct: AssayQuant Technologies, Inc. (ran the panel)
T6 sequence (Q96RR4 whole entry, species assumed): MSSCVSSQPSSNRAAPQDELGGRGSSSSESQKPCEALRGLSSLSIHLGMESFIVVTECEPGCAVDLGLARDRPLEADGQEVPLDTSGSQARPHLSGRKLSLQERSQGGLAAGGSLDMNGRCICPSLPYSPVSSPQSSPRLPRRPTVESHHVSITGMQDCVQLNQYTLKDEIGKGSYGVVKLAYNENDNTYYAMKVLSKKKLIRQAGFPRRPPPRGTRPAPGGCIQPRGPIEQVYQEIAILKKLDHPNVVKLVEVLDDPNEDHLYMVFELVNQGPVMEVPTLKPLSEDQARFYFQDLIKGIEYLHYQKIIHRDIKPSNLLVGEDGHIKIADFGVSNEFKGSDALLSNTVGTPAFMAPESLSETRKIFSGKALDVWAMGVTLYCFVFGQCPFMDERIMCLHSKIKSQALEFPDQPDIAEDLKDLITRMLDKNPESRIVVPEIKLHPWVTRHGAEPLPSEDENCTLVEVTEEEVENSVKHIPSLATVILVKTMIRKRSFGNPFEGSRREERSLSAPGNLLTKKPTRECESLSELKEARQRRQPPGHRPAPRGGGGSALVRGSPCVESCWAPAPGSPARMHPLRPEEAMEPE
The procedure:
as §1

The target in test [9] is T7, EGFR (Homo sapiens, UniProt P00533).
T7 construct: AssayQuant Technologies, Inc. (service laboratory)
How it is done:
as §1

In test [10] the target is T8, MAPKAPK2/MK2 (Homo sapiens, UniProt P49137).
T8 construct: AssayQuant Technologies, Inc. (service provider)
T8 sequence (P49137 whole entry): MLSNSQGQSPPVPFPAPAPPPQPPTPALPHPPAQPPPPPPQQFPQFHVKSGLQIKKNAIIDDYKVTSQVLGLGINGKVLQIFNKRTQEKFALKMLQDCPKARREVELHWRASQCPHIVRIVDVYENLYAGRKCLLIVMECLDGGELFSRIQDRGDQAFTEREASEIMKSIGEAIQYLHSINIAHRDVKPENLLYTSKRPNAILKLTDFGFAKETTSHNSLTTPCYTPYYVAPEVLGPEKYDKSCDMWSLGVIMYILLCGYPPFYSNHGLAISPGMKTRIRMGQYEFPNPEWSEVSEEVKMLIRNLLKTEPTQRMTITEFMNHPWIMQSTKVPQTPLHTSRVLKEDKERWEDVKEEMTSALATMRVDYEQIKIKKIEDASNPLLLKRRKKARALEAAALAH
How it is done: as §1

For test [11], the target named is T9, CSNK2A1/CK2A1 (Homo sapiens, UniProt P68400).
T9 construct: AssayQuant Technologies, Inc. (service laboratory)
T9 sequence (P68400 whole entry): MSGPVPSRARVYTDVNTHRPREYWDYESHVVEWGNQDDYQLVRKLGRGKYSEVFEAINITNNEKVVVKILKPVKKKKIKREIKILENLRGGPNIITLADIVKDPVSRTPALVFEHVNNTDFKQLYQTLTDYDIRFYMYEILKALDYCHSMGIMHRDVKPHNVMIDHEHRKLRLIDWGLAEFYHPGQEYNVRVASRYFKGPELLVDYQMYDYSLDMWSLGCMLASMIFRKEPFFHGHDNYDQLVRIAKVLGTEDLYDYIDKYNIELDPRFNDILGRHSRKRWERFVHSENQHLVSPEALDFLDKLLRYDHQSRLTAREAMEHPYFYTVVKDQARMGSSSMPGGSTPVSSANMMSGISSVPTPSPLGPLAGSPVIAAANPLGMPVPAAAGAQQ
The procedure: as §1

Test [12] concerns the target LYNA (Homo sapiens, UniProt P07948). The procedure:
as §1

The target of test [13] is MAP3K10 (Homo sapiens, UniProt Q02779). The procedure:
as §1

Test [14] deals with T10, TEC (Homo sapiens, UniProt P42680).
T10 construct: AssayQuant Technologies, Inc. (contract laboratory that ran the panel)
T10 sequence (P42680 1-631): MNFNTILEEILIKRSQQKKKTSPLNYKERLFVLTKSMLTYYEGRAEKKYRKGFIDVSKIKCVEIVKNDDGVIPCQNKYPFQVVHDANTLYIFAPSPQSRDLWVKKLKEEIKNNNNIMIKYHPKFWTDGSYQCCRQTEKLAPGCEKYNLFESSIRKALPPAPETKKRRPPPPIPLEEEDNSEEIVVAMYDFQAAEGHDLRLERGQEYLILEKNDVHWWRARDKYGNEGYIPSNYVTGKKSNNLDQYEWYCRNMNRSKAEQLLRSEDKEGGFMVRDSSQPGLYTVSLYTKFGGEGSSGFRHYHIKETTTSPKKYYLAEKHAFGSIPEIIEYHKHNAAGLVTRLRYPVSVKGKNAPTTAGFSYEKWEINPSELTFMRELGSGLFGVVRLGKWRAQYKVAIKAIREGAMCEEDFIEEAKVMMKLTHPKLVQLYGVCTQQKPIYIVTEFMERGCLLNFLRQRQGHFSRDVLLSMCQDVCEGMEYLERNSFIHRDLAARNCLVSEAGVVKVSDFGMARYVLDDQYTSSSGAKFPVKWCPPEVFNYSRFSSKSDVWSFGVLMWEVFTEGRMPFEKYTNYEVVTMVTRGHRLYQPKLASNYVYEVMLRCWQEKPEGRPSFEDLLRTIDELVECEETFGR
The procedure:
as §1

For test [15], the target named is T11, CDC42BPA/MRCKA (Homo sapiens, UniProt Q5VT25).
T11 construct: AssayQuant Technologies, Inc. (ran the panel)
T11 sequence (Q5VT25 whole entry): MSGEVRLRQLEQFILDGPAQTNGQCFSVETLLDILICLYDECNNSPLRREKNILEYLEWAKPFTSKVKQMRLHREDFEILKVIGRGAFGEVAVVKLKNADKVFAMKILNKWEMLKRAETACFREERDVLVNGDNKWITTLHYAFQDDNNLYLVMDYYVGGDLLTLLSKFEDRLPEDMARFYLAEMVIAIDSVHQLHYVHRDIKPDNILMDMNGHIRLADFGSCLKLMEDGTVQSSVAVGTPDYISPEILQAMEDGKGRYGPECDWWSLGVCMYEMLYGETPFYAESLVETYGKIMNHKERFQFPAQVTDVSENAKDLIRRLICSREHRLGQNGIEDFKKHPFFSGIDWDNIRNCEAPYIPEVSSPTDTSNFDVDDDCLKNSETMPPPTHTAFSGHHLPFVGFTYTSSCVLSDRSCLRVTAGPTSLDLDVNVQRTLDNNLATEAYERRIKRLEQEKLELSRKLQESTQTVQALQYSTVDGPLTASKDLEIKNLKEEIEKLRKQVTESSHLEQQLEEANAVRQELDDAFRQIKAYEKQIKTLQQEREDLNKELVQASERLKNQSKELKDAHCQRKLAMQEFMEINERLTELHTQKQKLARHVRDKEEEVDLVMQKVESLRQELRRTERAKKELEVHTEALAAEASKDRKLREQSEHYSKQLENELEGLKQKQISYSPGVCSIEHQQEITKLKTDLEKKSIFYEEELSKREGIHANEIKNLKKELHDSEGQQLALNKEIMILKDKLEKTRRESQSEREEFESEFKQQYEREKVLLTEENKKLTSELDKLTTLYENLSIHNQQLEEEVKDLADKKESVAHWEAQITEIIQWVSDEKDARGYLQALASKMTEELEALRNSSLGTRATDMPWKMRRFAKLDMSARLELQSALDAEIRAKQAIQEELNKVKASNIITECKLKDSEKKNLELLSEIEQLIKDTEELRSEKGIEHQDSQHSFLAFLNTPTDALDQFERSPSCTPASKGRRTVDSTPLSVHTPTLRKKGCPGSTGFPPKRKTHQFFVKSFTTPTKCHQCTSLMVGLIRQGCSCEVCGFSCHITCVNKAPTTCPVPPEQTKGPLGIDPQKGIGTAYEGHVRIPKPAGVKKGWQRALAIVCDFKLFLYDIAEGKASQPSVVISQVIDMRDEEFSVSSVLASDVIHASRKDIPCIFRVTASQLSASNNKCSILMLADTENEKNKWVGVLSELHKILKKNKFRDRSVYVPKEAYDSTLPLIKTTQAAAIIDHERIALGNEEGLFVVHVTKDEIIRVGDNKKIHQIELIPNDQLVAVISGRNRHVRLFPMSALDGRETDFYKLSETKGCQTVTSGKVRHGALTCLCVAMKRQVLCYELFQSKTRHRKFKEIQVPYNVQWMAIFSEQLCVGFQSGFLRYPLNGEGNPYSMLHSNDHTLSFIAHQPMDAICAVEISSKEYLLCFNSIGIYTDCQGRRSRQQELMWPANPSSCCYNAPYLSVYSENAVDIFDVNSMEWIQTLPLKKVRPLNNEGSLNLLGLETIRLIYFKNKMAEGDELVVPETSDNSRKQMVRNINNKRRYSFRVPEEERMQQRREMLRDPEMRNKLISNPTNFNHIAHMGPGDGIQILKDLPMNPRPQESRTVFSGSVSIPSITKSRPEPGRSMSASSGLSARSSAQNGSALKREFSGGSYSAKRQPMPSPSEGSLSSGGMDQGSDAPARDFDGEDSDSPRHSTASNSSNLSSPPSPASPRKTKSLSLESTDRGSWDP
The procedure: as §1

This passage reports inhibition results from patent US20220009920A1 (GB005, Inc., priority 2020, published 2022).

LYNA, sequence (P07948 whole entry, species assumed): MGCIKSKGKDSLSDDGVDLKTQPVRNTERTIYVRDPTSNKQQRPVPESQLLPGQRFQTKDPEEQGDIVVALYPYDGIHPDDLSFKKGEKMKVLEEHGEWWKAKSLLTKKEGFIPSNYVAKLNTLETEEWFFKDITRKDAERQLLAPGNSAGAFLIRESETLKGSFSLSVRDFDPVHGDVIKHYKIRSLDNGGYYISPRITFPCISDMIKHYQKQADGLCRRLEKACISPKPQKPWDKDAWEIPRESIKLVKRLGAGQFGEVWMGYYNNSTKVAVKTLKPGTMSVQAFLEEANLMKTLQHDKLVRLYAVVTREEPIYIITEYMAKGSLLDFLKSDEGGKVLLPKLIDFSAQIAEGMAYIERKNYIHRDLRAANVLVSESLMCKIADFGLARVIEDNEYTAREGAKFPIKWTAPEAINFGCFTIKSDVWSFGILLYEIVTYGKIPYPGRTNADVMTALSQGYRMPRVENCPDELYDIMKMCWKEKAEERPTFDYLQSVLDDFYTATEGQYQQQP
MAP3K10, sequence (Q02779 whole entry, species assumed): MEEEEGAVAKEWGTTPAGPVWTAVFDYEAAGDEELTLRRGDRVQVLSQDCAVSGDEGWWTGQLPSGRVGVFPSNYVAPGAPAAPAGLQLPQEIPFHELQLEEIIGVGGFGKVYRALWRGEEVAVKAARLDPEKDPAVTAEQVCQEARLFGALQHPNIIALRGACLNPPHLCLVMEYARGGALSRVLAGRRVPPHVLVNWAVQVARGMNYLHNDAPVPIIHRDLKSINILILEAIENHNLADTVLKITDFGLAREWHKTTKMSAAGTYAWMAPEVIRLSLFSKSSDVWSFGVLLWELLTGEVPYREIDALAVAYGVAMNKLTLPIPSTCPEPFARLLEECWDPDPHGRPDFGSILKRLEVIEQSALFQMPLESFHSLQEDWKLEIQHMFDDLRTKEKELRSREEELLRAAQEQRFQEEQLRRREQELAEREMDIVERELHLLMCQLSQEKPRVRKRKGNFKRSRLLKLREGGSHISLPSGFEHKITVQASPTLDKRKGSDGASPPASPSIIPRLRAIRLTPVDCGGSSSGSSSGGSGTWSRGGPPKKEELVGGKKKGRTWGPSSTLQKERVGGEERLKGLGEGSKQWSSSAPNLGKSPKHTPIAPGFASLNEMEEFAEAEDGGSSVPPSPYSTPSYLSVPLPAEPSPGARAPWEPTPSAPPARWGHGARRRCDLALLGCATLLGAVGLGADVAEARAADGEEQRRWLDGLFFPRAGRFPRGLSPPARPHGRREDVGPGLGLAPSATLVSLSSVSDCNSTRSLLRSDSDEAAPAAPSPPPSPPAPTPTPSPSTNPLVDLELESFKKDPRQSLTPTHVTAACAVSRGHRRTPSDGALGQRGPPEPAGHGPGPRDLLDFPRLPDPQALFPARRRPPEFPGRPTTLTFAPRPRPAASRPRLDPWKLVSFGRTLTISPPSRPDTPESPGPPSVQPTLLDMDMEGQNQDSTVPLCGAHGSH

A word on the inhibition: it is the drop in the measured response relative to a control, in per cent. Regarding `C=CC(=O)N1CCCC(c2c(F)cc(C(N)=O)c3[nH]c4c(c23)CCCCC4)C1` (single isomer, unassigned) [Compound 5-6], the inhibition at 1 µM was -4.9% in test [1]; -11.1% in [2]; 2.8% in [3]; -3.4% in [4]; -24.4% in test [5]; -42% in test [6]. Moreover, the inhibition at 1 µM is -14.1% in [7]; 25.8% in [8]; -7.8% in [9]; -5.9% in test [10]; 0.4% in test [11]; -2.9% in test [12]. Also, the inhibition at 1 µM in test [13] is -8.6%; in test [14], 80.3%; in test [15], -30.9%.
For `C=CC(=O)N1CCC[C@@H](c2c(F)cc(C(N)=O)c3[nH]c4c(c23)CC2(CC4)CC2)C1` [Compound 6-2, (S)-5-(1-acryloylpiperidin-3-yl)-6-fluoro-1,2,4,9-tetrahydrospiro[carbazole-3,1′-cyclopropane]-8-carboxamide], the inhibition at 1 µM in test [1] is -13%; in [2] it was -13%; in test [3] it was -5.3%; in [4], 15.3%; in test [5], 28.8%; in test [6] it was -24.7%. The inhibition at 1 µM in test [7] was -56.4%; in [8], 0.4%; in test [9] it was -7.7%; in [10], 24.1%; in test [11], -12%; in test [12], 36.4%. The inhibition at 1 µM in test [13] is 18.9%; in test [14] it was 84.5%; in [15], -16.2%.
For the compound `C=CC(=O)N1CCC[C@@H](c2c(F)cc(C(N)=O)c3[nH]c4c(c23)CCC4)C1` [Compound 10-2, (S)-8-(1-acryloylpiperidin-3-yl)-7-fluoro-1,2,3,4-tetrahydrocyclo-penta[b]indole-5-carboxamide], the inhibition at 1 µM is -19.5% in test [1]; 1.6% in test [2]; -14.1% in test [3]; -2% in [4]; 36.6% in test [5]; -12.1% in [6]. The inhibition at 1 µM in test [7] is -16.8%; in test [8], 2.6%; in test [9], 1.6%; in [10] it was -7.1%; in test [11], -32%; in test [12], 22.8%. The inhibition at 1 µM in test [13] is -17.7%; in test [14], 76.1%; in [15], 1.8%.
